Measured values reported in PubChem BioAssay AID1963982 (Molecular Pharmacology Branch, DTP, NCI, 2024).

System: 313798-341-R-J2-PDC spheroids, viability
Assay: Anticancer human tumor 313798-341-R-J2-PDC patient-derived cervical squamous cell carcinoma cell line growth inhibition [PI3K]
Details: spheroids with HUVEC and MSC; for IC50: curve of first compound; for viability, T/C: stronger effect = lower value; active = viability on the fitted dose curve at most 10% of control; inactive = the rest
Source text: Combinatorial screen of targeted agents with the PI3K inhibitors inavolisib, alpelisib, duvelisib, and copanlisib in multi-cell type tumor spheroids
A high-throughput screen of multi-cell type tumor spheroids was designed to identify active combinations of targeted small molecules and PI3K pathway inhibitors. Complex spheroids include a stromal component modeled by human endothelial cells (HUVEC) and fibroblasts modeled by human mesenchymal stem cells (MSCs). The concentration ranges selected for each drug and investigational agent were based upon clinically achievable concentrations if the clinical Cmax of the agent was known.
Compounds. The drugs and investigational agents: inavolisib (NSC800729), alpelisib (NSC765974), duvelisib (NSC772469), copanlisib (NSC816437), ipatasertib (NSC767898), afuresertib (NSC778305), talazoparib (NSC767125), sapanisertib (NSC764658), selumetinib (NSC741078), tovorafenib (DAY101, NSC766906), vemurafenib (NSC761431), ravoxertinib (NSC781343), sotorasib (NSC818433), MRTX1133 (NSC 836407), abemaciclib (NSC 768073), palbociclib (NSC758247), venetoclax (NSC 766270), SY5609 (NSC837396), enzalutamide (NSC755605), and darolutamide (NSC825331), were obtained from the National Cancer Institute (NCI) Developmental Therapeutics Program Chemical Repository. The FDA-approved anticancer drug set is available from the NCI Developmental Therapeutics Program. […] The stock solutions were prepared in dimethyl sulfoxide (DMSO, Sigma-Aldrich, St. Louis, MO, cat. D2650) at 800-fold the tested concentration and stored at -70 degrees C prior to their use. All drugs and investigational agents were tested over a range starting from a high concentration at or near the clinical Cmax and decreasing in half-log increments. If the clinical Cmax for an agent had not been determined, the highest concentration tested was 10 microM.
Cell Culture. All cells were maintained in an incubator at 37 degrees C and 5% CO2 with 95% humidity. The PDC lines were cultured according to standard operating procedures established by the NCI PDMR (https://pdmr.cancer.gov/sops/default.htm). All PDCs were thawed and cultured in Matrigel-coated flasks prepared with a working solution of 1X Ham's F-12 nutrient mix, without supplementation (Invitrogen, Waltham, MA, cat. 11765054), 100 U/mL penicillin-streptomycin (Invitrogen, cat. 15140122), and 2.5% Matrigel (Corning Inc., Corning, NY, cat. 354248) for the first three passages. The 354836-022-R-J1-PDC, 475296-252-R-J1-PDC, and 997726-040-R-J2-PDC lines were cultured in 6A media, which includes advanced DMEM/F-12 (Thermo Fisher Scientific, cat. 12634028), 10 mM HEPES (Thermo Fisher Scientific, cat. 15630080), 1X GlutaMAX supplement (Thermo Fisher Scientific, cat. 35050061), 0.1 mg/mL primocin (InvivoGen, San Diego, CA, cat. ant-pm-2), 10% defined fetal bovine serum, heat inactivated (HyClone Laboratories Inc., Logan, UT, cat. SH30070.03HI), 50% L-WRN conditioned media (ATCC, cat. CRL-3276), 1.25 mM N-Acetyl-L-cysteine (Sigma-Aldrich, cat. A9165), 10 mM nicotinamide (Sigma-Aldrich, cat. N0636), 1X B-27 supplement (Thermo Fisher Scientific, cat. 17504044), 1X N-2 supplement (Thermo Fisher Scientific, cat. 17502048), and 10 microM Y-27632 dihydrochloride (Tocris Bioscience, Bristol, United Kingdom, cat. 1254). The 624824-186-R-J2-PDC line was cultured in 6C/Colon 1B media, which includes all 6A media components plus 50 ng/mL human EGF recombinant protein (Thermo Fisher Scientific, cat. PHG0311). […]

[1] = second compound 0.00316 µM, first compound 0.0316 µM
[2] = second compound 0.00316 µM, first compound 0.1 µM
[3] = second compound 0.00316 µM, first compound 0.316 µM
[4] = second compound 0.00316 µM, first compound 1 µM
[5] = second compound 0.00316 µM, first compound 3.16 µM
[6] = second compound 0.00316 µM, first compound 10 µM
[7] = second compound 0.01 µM, first compound 0.0316 µM
[8] = second compound 0.01 µM, first compound 0.1 µM
[9] = second compound 0.01 µM, first compound 0.316 µM
[10] = second compound 0.01 µM, first compound 1 µM
[11] = second compound 0.01 µM, first compound 3.16 µM
[12] = second compound 0.01 µM, first compound 10 µM
[13] = second compound 0.0316 µM, first compound 0.0316 µM
[14] = second compound 0.0316 µM, first compound 0.1 µM
[15] = second compound 0.0316 µM, first compound 0.316 µM
[16] = second compound 0.0316 µM, first compound 1 µM
[17] = second compound 0.0316 µM, first compound 3.16 µM
[18] = second compound 0.0316 µM, first compound 10 µM
[19] = second compound 0.1 µM, first compound 0.0316 µM
[20] = second compound 0.1 µM, first compound 0.1 µM
[21] = second compound 0.1 µM, first compound 0.316 µM
[22] = second compound 0.1 µM, first compound 1 µM
[23] = second compound 0.1 µM, first compound 3.16 µM
[24] = second compound 0.1 µM, first compound 10 µM
[25] = second compound 0.316 µM, first compound 0.0316 µM
[26] = second compound 0.316 µM, first compound 0.1 µM
[27] = second compound 0.316 µM, first compound 0.316 µM
[28] = second compound 0.316 µM, first compound 1 µM
[29] = second compound 0.316 µM, first compound 3.16 µM
[30] = second compound 0.316 µM, first compound 10 µM
[31] = second compound 1 µM, first compound 0.0316 µM
[32] = second compound 1 µM, first compound 0.1 µM
[33] = second compound 1 µM, first compound 0.316 µM
[34] = second compound 1 µM, first compound 1 µM
[35] = second compound 1 µM, first compound 3.16 µM
[36] = second compound 1 µM, first compound 10 µM
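Also: spheroids exposed to compounds for seven days.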

CC1(C)CCC(CN2CCN(c3ccc(C(=O)NS(=O)(=O)c4ccc(NCC5CCOCC5)c([N+](=O)[O-])c4)c(Oc4cnc5[nH]ccc5c4)c3)CC2)=C(c2ccc(Cl)cc2)C1 + CC(Nc1ccc2c(c1)OCCn1cc(N3C(=O)OCC3C(F)F)nc1-2)C(N)=O
5.41 µM: IC50 (second compound 0.0316 µM)
inactive: viability, T/C [1] 93.1% | viability, T/C [2] 92.4% | viability, T/C [3] 95.5% | viability, T/C [4] 89.4% | viability, T/C [5] 81.3% | viability, T/C [6] 16.9% | viability, T/C [7] 100% | viability, T/C [8] 93.2% | viability, T/C [9] 98.5% | viability, T/C [10] 90.7% | viability, T/C [11] 84.2% | viability, T/C [12] 16.5% | viability, T/C [13] 92.6% | viability, T/C [14] 86.3% | viability, T/C [15] 89.5% | viability, T/C [16] 93.2% | viability, T/C [17] 78.3% | viability, T/C [18] 17% | viability, T/C [19] 94.1% | viability, T/C [20] 102% | viability, T/C [21] 90.4% | viability, T/C [22] 90.9% | viability, T/C [23] 67.2% | viability, T/C [24] 17% | viability, T/C [25] 79.7% | viability, T/C [26] 69.7% | viability, T/C [27] 78.2% | viability, T/C [28] 60.1% | viability, T/C [29] 44.8% | viability, T/C [30] 16.5% | viability, T/C [31] 51.6% | viability, T/C [32] 49.7% | viability, T/C [33] 51.8% | viability, T/C [34] 49.2% | viability, T/C [35] 35.8% | viability, T/C [36] 14%
2.19 µM: IC50 (second compound 0.316 µM)
5.66 µM: IC50 (second compound 0.01 µM)
5.51 µM: IC50 (second compound 0.00316 µM)
0.609 µM: IC50 (second compound 1 µM)
4.71 µM: IC50 (second compound 0.1 µM)

C[C@@H](NC(=O)c1ncnc(N)c1Cl)c1ncc(C(=O)Nc2cc(C(F)(F)F)c(Cl)cn2)s1 + CC(Nc1ccc2c(c1)OCCn1cc(N3C(=O)OCC3C(F)F)nc1-2)C(N)=O
< 0.0316 µM: IC50 (second compound 1 µM)
active: viability, T/C [6] 6.06% | viability, T/C [12] 5.51% | viability, T/C [18] 8.08% | viability, T/C [24] 6.24% | viability, T/C [30] 9.28%
5.9 µM: IC50 (second compound 0.0316 µM)
inactive: viability, T/C [1] 101% | viability, T/C [2] 106% | viability, T/C [3] 103% | viability, T/C [4] 95.4% | viability, T/C [5] 110% | viability, T/C [7] 110% | viability, T/C [8] 105% | viability, T/C [9] 95.1% | viability, T/C [10] 105% | viability, T/C [11] 110% | viability, T/C [13] 99.9% | viability, T/C [14] 103% | viability, T/C [15] 110% | viability, T/C [16] 114% | viability, T/C [17] 99.6% | viability, T/C [19] 81.9% | viability, T/C [20] 78% | viability, T/C [21] 91.8% | viability, T/C [22] 92.7% | viability, T/C [23] 73.3% | viability, T/C [25] 55.2% | viability, T/C [26] 54.6% | viability, T/C [27] 61.6% | viability, T/C [28] 66.5% | viability, T/C [29] 42.6% | viability, T/C [31] 51.8% | viability, T/C [32] 41.5% | viability, T/C [33] 53.4% | viability, T/C [34] 45.4% | viability, T/C [35] 29.3% | viability, T/C [36] 14.3%
4.72 µM: IC50 (second compound 0.1 µM)
5.98 µM: IC50 (second compound 0.01 µM)
1.91 µM: IC50 (second compound 0.316 µM)
5.94 µM: IC50 (second compound 0.00316 µM)
